Assay: Human HepG2 cell viability assay in 384 well format
Assay type: toxicity, cell-based
Design: dose 125 nL, time 70.5 hour; concentration not given beside the values
Settings: HepG2 cells, read-out: Inhibition

In order of rising cytotoxicity at 70.5 h:
1. CC(C)OCCCNC(=O)c1c(-n2cnnn2)sc2c1CCCC2  -25.4%
2. Cn1cc(CN2C[C@@H]3COC[C@]3(C(=O)NCc3ccccn3)C2)cn1  -17.5%
3. CC(c1nc(C(C)(C)C)no1)N1CCN(CC(=O)N2CCOCC2)CC1 (stereo not drawn)  -16.5%
4. COc1cc2nc(C)n(CC(=O)NCC(C)C)c(=O)c2cc1OC  -15.9%
5. Cc1cccc(OCCNC(=O)CN2CCCC2Cn2cccn2)c1 (stereo not drawn)  -15.8%
6. Cc1ccc(C)c(NCc2nc3n(n2)CCCCC3)c1  -15.6%
7. Cc1nc(CN2C(=O)C[C@@H]3[C@@H]2CCN3Cc2cnn(C)c2)cs1  -15.4%
8. CO[C@H]1CN(C(=O)OC(C)(C)C)CC1NCc1ccoc1 (stereo partly drawn)  -13.8%
9. Cn1cccc1C(=O)N1CCC2(CCCN2c2ncccn2)CC1  -13.8%
10. CCOc1cc(/C=C/c2ncc(C(=O)NC)s2)ccc1OC  -13.2%
11. CNC(=O)c1nc(CC(=O)Nc2ccc3cc[nH]c3c2)no1  -13.1%
12. CCn1ccnc1CN1CCCN(C(=O)c2cc(Cl)c[nH]2)CC1  -12.8%
13. CSCc1ccc(CNCCN2CCOCC2)o1  -12.8%
14. CCN(C(c1cccnc1)c1ccc(F)cc1F)S(C)(=O)=O (stereo not drawn)  -12.1%
15. c1cnnc(NCC2CN(CCN3CCCCC3)CCO2)c1 (stereo not drawn)  -11.2%
16. Cn1cc(CNC(=O)C2CCCN(Cc3cccc(F)c3)C2)cn1 (stereo not drawn)  -11.1%
17. CC(C)Cc1cc(C(=O)NCC2CCCN(Cc3ccco3)C2)on1 (stereo not drawn)  -10.7%
18. Cc1cc(NCc2ccccc2CN2CCCCC2)n2ncnc2n1  -10.1%
19. Cn1nnc(NCc2ccc(-c3ccc(Br)cc3)o2)n1  -9.29%
20. O=C(O)[C@H]1OCC(=O)N(Cc2cccc(F)c2)[C@@H]1c1ccc(Cl)cc1  -9.16%
21. CCS(=O)(=O)c1ncc(CN(C)CCc2ccccn2)n1CCOC  -8.19%
22. Cc1cc(C(=O)N2CC[C@@H]3CO[C@@H](CN4CCCC4)[C@@H]3C2)no1  -7.99%
23. CCn1c(C2CCCN(Cc3cccc4cnccc34)C2)nn(C)c1=O (stereo not drawn)  -7.71%
24. CCc1nnsc1C(=O)NCCc1nnc2n1CCC2  -7.69%
25. Cc1ccccc1CN1CCNC(=O)C1CC(=O)NCC1CCCCC1 (stereo not drawn)  -7.5%
26. CNC1CCCN(Cc2noc(C3CC3)n2)C1 (stereo not drawn)  -7.48%
27. CC(Cc1cn(CCc2n[nH]c(=O)[nH]2)nn1)c1ccccc1 (stereo not drawn)  -7.35%
28. CNCCCNC1CCN(c2ccc(-n3ccnc3)cc2)CC1  -7.26%
29. CC(C)Nc1ncnc2c1CCN(C(=O)NCc1cccc(F)c1)CC2  -7.17%
30. CN(C)c1ncc2c(n1)C1(CCN(Cc3ccccc3F)C1)COC2 (stereo not drawn)  -7.03%
31. CN1CCC2(CC1)CN(CC1CC1)CC21CCNC1=O (stereo not drawn)  -6.91%
32. CCn1cnnc1CN(C)Cc1nc(-c2cc(OC)ccc2F)oc1C  -6.85%
33. Cc1ccnc(C(Nc2nccc(-c3ccc(C)nc3C)n2)C2CC2)c1 (stereo not drawn)  -6.77%
34. Cc1cccc(N2CC3(CCN(S(=O)(=O)c4ccccc4)C3)CC2=O)c1 (stereo not drawn)  -6.5%
35. O=C(Nc1ccccc1)C1=NOC2(CCNCC2)C1  -6.36%
36. CNc1cc(C)nc(C2CCN(CCO)CC2)n1  -6.23%
37. CN(C)[C@@H]1CCN(c2ncc(F)cn2)[C@H]1Cc1ccncc1  -5.64%
38. Cc1ccccc1S(=O)(=O)NC(=O)C1(c2cccc(Cl)c2)CC1  -5.62%
39. CC(=O)N1CCC2(CC1)c1ncc(-c3ccccc3)n1CCN2C(C)=O  -5.58%
40. CC(C)(C)c1nnc(CN2CCCC(Cn3cncn3)C2)o1 (stereo not drawn)  -5.42%
41. Cc1nc2ccc(C(=O)N3CCN(CCO)[C@@H]4CS(=O)(=O)C[C@@H]43)cc2o1  -5.42%
42. COc1ccccc1C(C)CC(=O)N1CCCS1(=O)=O (stereo not drawn)  -5.37%
43. c1cc(-c2nnc(C3CCCN(CC4CCCCC4)C3)o2)ccn1 (stereo not drawn)  -5.12%
44. CN(CC(N)=O)Cc1ccc(F)cc1Cl  -5.08%
45. COCCOc1ccc(NC(=O)C2CC(=O)N(C(C)C)C2)cn1 (stereo not drawn)  -4.64%
46. CNC(=O)CS(=O)(=O)Cc1cc(Cl)c2c(c1)OCCO2  -4.61%
47. COCCN(C)C[C@@H]1CN(C(=O)c2ccc(O)c(Cl)c2)C[C@@H]1CO  -4.52%
48. O=C(NCCn1ccnc1)N1CCCC1c1ccc2c(c1)OCCO2 (stereo not drawn)  -4.48%
49. CCc1nnc(CNC(=O)CCN2CCN(c3cccc(C)c3)CC2)s1  -4.25%
50. Cc1cc(C)n(-c2ccnc(N3CCC(C(=O)N4CCCC4)CC3)n2)n1  -4.06%
51. CC(C)NC(=O)c1nnn(-c2ccc(F)cc2)c1C1CC1  -4.05%
52. CCCC(=O)N1CCC(c2cc3n(n2)[C@@H](C(F)(F)F)C[C@@H](C)N3)CC1  -3.97%
53. C[C@@]1(O)CCN(C2CCOCC2)C[C@H]1n1ccc(=O)[nH]c1=O  -3.9%
54. COCc1c(C(=O)N2CCCC(C(=O)c3ccccc3)C2)noc1C (stereo not drawn)  -3.85%
55. Cc1ccccc1CN1CCC[C@H]1c1nc(-c2cncnc2N)no1  -3.84%
56. CN(C)CCC1CCCCN1Cc1cnc(-c2ccccn2)nc1 (stereo not drawn)  -3.63%
57. O=C(N1CCOCC1)[C@@]12CCO[C@@H]1CCN(Cc1ccncc1)C2  -3.44%
58. CN(Cc1cc[nH]n1)C(=O)c1cccc(CCC(C)(C)O)c1  -3.42%
59. CCOc1ncccc1-c1cc2c(cc1C(N)=O)OCO2  -3.42%
60. Cc1ccccc1N1CCN(C(=O)c2ncc(F)cc2F)C(C)C1 (stereo not drawn)  -3.38%
61. Cc1cccc(-n2nnnc2C2(NCc3ccco3)CCCCC2)c1  -3.38%
62. N#CCCN(CC1CC1)S(=O)(=O)c1cccc(Cl)c1  -3.31%
63. CN(C(=O)c1ccccc1Cl)C1CCN(c2ccccn2)CC1  -3.26%
64. COCC(=O)NCc1cc(=O)n2c(n1)CN(C)CCC2  -3.22%
65. CCC(Nc1nccc(C2CCCC2)n1)c1ccccn1 (stereo not drawn)  -3.14%
66. CCn1ncc2c1CN(C(=O)Cc1ccccn1)CC2COC (stereo not drawn)  -3.07%
67. CCN(Cc1nccn1C)C1CCN(c2ccccc2)C1=O (stereo not drawn)  -2.87%
68. CC(NCCn1cccn1)c1ccc(F)cc1F (stereo not drawn)  -2.25%
69. CCOC(=O)Cn1cnc2nc3n(c2c1=O)CCC3  -2.23%
70. CCC(=O)Nc1nnc(CCOc2ccccc2)s1  -2.19%
71. O=C1CC(CNc2cncc(Cl)n2)c2ccccc2N1 (stereo not drawn)  -2.03%
72. c1cncc(-c2noc(CN3CCn4c(nnc4C4CC4)C3)n2)c1  -1.9%
73. CN(C)Cc1noc2c1CN(Cc1ccc[nH]1)CC2  -1.45%
74. CC(C)CC(=O)N1CCCC2(CC(C(=O)Nc3ccccc3)=NO2)C1 (stereo not drawn)  -0.967%
75. O=C(N[C@@H]1CN[C@H]2CCCO[C@H]21)c1cnccn1  -0.404%
76. CN(C)c1ccc(CNC(=O)Nc2ccc(S(=O)(=O)C(F)F)cc2)cc1  -0.147%
77. CCC1CN(C(=O)COc2ccc(C)nc2)CCO1 (stereo not drawn)  0.326%
78. CC(C)=CCN1CCN(C(=O)c2cc(C)n[nH]2)[C@H]2CS(=O)(=O)C[C@H]21  0.726%
79. Cc1cc(N2CCN3CCCCC3C2)n2nc(C)c(C)c2n1 (stereo not drawn)  1.57%
80. COc1cc(OC)c(-n2nnc(C(=O)O)c2C)cc1Cl  1.66%
81. CNC(=O)NC(=O)CNc1cc(C(=O)OC)cc(C(F)(F)F)c1  1.77%
82. Cc1nn(C)c(Cl)c1C1CCCN1CC(=O)N1CCOCC1 (stereo not drawn)  1.93%
83. COCc1nc(CN2CCOC(CN(C)c3cccnn3)C2)cs1 (stereo not drawn)  2.04%
84. CC(C)(CNC(=O)C(C)(C)c1ccccc1F)C(N)=O  2.08%
85. CCc1n[nH]c(C2CN(C(=O)c3cnns3)CCO2)n1 (stereo not drawn)  2.09%
86. O=C(NCc1ccco1)[C@@]12CCO[C@@H]1CCN(C1CCC1)C2  2.1%
87. Cc1ccc(S(=O)(=O)N2CCOCC2C#N)c(F)c1 (stereo not drawn)  2.28%
88. O=C([C@@H]1C[C@@H]2CCN(Cc3ccccn3)C[C@H]2O1)N1CCCO1  2.74%
89. CNC(=O)c1cc(-n2ccnc2-c2cnc(N(C)C)nc2)ccc1OC  3.46%
90. CC(CCO)Nc1cccc(C(F)(F)F)n1 (stereo not drawn)  3.64%
91. Cn1cc(CCNC(=O)N2CCCc3c(F)cccc32)cn1  3.99%
92. Cc1occc1C(=O)N1CCO[C@H]2[C@@H](Oc3ccccn3)CC[C@@H]21  4.46%
93. Cc1noc(C)c1CN1CCn2cc(CNc3ccccn3)nc2C1  5.28%
94. CSc1nccn1-c1cccc(C(=O)NCc2nnc(C)n2C)c1  6.07%
95. Cc1nn(C)c(C)c1-c1ccnc(N(C)Cc2noc(C(C)C)n2)n1  7.17%
96. NC(=O)C1CCN(C(=O)c2cccc(CN3CCOCC3)c2)CC1  8.77%
97. CC(=O)c1c(F)cccc1N1CCC(Cc2cccnc2)CC1  9.22%
98. Nc1nc2c(c(NC(=O)Nc3ccc(Cl)c(Cl)c3)n1)CCCC2  9.83%
99. O=C(c1ccc2c(c1)OCO2)N1CCCC(n2ccnc2)C1 (stereo not drawn)  10.2%
100. Cn1nc(CNC(=O)CC#N)c2c1CN(C(N)=O)CC2  11.4%
101. CNc1nc(C(=O)NCc2cccnc2N(C)C2CCCCC2)cs1  12.4%
102. CCOc1ncccc1CNS(=O)(=O)N1CCOCC1  15.2%
103. COCCN1CCC2(CCN(Cc3cccs3)CC2)C1=O  16.2%
104. CCc1noc(C(C)N2CCN(Cc3cnc(C)cn3)CC2)n1 (stereo not drawn)  16.3%
105. COCC(c1cccc(C(F)(F)F)c1)N(C)C(=O)c1cc(C)n[nH]1 (stereo not drawn)  18.4%
106. Cn1cccc(NC(=O)N2CCC(Cc3ccccc3)C2)c1=O (stereo not drawn)  19.7%
107. CC(O)C(=O)N1CCC(c2nccn2Cc2cscn2)CC1 (stereo not drawn)  23.7%
108. CCc1ccc(CN2CCN(C)c3ncccc3C2)o1  24.1%
109. Cc1nccn1-c1nccnc1C1CCN(Cc2ccc(F)cc2)CC1  24.1%
110. CN(Cc1ccco1)C(=O)CN1CCCC1c1cccs1 (stereo not drawn)  24.6%
111. CC(=O)c1cccc(OCC(=O)NS(=O)(=O)c2ccc(C)s2)c1  28.6%
112. Cc1ccc(C(=O)NCCn2nc(-n3cncn3)ccc2=O)c(C)c1  29.8%
113. CCN1CCN(S(=O)(=O)N2CCCCCC2)[C@H]2CS(=O)(=O)C[C@H]21  30%

Reference: ChEMBL document CHEMBL3507680, “University of Dundee, Gates Library screen for HepG2 cell viability”
